Measurements as given in the SangsterLogP compilation.

SMILES | logP
CCC(=O)C(CCN(C)C)(c1ccccc1)c1ccc(SC)cc1 (stereo not drawn) | 4.96
CCC(=O)C(CCN(C)C)(c1ccccc1)C1CCCCCC1 (stereo not drawn) | 5.91
CCC(=O)C(CCN(C)C)(c1ccccc1)c1cccc(F)c1 (stereo not drawn) | 4.17
CCC(=O)C(CCN(C)C)(c1ccccc1)C1CCCC1 (stereo not drawn) | 4.53
CCC(=O)C(CCN(C)C)(c1ccccc1)c1ccc(Cl)cc1 (stereo not drawn) | 4.9
CCC(=O)C(CCN(C)C)(c1ccccc1)C1CCCCC1 (stereo not drawn) | 5.13
CCC(=O)C(CCN(C)C)(c1ccccc1)c1ccc(F)cc1 (stereo not drawn) | 4.19
CCC(=O)C(CCN(C)C)(c1ccccc1)c1ccc(Br)cc1 (stereo not drawn) | 5.23
CCC(=O)C(CCN(C)C)(c1ccccc1)c1ccc(OC)cc1 (stereo not drawn) | 4.28
CCC(=O)C(CCN(C)C)(c1ccccc1)c1ccc(C)cc1 (stereo not drawn) | 4.93
CCC(=O)C(CCN(C)C)(c1ccccc1)c1ccccc1 | 4.15
CCC(=O)C(CCN(C)C)(c1ccc(F)cc1)c1ccc(F)cc1 | 4.84
CCC(=O)C(CCN(C)C)(c1ccccc1)c1ccc(O)cc1 (stereo not drawn) | 3.45
